Assay results: patent publication US11541049B2, “Tetrahydroisoquinoline derivatives, preparation process and use thereof” (SICHUAN KELUN-BIOTECH BIOPHARMACEUTICAL CO., LTD., priority 2018, dated 2023)
Blank lines part the entries; values can stand above or below the compound they belong to.

How the values were obtained:
[1] = Pharmacokinetics study in Beagle dogs, intravenous injection; type: in vivo, Beagle dog; settings: dog, plasma, 0.5 mg/kg
Method: (§1) Pharmacokinetics properties were examined by administering compound of the present disclosure and the reference compound (BMS-962212) to Beagle dog through intravenous injection (IV). Blood was collected at various time points after administration. The blood was anticoagulated with EDTA-K2. Plasma samples were obtained by centrifugation, and retained at −80° C. The plasma samples were processed to precipitate the proteins and then analyzed by LC-MS/MS.
(§2) The pharmacokinetic parameters were calculated using WinNonlin 6.3 software by employing a non-compartmental model.

SD rats [2] = assay: Repeated dose toxicity study in SD rats, intravenous infusion, daily for 14 days; type: in vivo; settings: 60 mg/kg
Method: (§3) The administration was repeated daily for 14 days, while clinical observation, body weight and food intake were recorded. […] Observation by gross anatomy and examination of histopathology were also conducted.

[3] = as above; type: in vivo; settings: rat, in vivo, daily for 14 days, SD rats, read-out: No-observed-adverse-effect level (NOAEL)
Method: as §3

[4] = Pharmacokinetics study in male SD rats, intravenous injection; type: in vivo; settings: male, SD, rat, plasma, rats, 5 mg/kg
Method: as §1, with “characteristics” for “properties”, “male SD rats” for “Beagle dog”, “centrifugation within 30 min after blood collection,” for “centrifugation,”
as §2

SD rats [5] = assay: Single dose toxicity study in SD rats, intravenous infusion; settings: intravenous infusion (2 ml/min)
Method: (§4) The clinical observation was carried out for 7 days after a single dose, and the body weight of the animals were measured. On the 8th day, blood samples were taken after anesthesia for detection of hematology, blood biochemistry, coagulation and other indicators. Observation was also conducted by gross anatomy.

[6] = as above; settings: SD, rat, in vivo, iv
Method: as §4

[7] = Pharmacokinetics study in male rabbits, intravenous injection; type: in vivo; settings: male, rabbit, plasma, 1 mg/kg
Method: as §1, with “male rabbits” for “Beagle dog”
as §2

[8] = target: human coagulation factor XIa (Homo sapiens (Human), UniProt P03951); assay: Inhibition of coagulation factor XIa (fluorogenic substrate, enzyme kinetic mode); type: biochemical
human coagulation factor XIa, sequence (P03951 388-625): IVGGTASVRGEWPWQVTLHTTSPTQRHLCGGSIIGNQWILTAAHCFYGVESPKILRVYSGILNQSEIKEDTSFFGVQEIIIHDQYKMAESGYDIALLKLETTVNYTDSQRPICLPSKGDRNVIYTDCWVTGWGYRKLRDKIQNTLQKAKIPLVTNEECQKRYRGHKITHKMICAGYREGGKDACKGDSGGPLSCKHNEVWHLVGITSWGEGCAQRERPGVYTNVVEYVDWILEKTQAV
human coagulation factor XIa, sequence (P03951 19-387): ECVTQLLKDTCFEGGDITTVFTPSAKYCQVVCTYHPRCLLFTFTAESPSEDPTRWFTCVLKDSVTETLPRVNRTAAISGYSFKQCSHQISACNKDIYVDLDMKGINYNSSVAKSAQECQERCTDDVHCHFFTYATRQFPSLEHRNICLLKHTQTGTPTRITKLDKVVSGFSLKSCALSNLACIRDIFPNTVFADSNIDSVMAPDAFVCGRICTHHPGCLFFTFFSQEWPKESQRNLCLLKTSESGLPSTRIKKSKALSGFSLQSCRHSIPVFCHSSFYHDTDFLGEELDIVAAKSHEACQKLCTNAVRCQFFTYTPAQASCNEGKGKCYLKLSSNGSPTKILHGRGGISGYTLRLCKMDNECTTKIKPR
Method: The following procedures can be used to determine the in vitro inhibition of human coagulation factor XIa by the compound of the present disclosure, as indicated by IC50.
Enzyme: human coagulation factor XIa; manufacturer: Haemtech;
Substrate: Boc-Ile-Glu-Gly-Arg-AMC Acetate salt; manufacturer: Bachem;
Reaction buffer: 50 mM HEPES, 145 mM NaCl, 5 mM KCl, 0.1% BSA, pH 7.4;
The test compounds were dissolved in reaction buffer at different concentrations. 4 μl of coagulation factor XIa and 4 μl of the test compound were added to a 384 well plate, incubated at room temperature for 10 minutes after mixed thoroughly, and then 4 μl of substrate was added to initiate the reaction. For reading fluorescence signal value, enzyme kinetic mode was used. The wavelength of excitation light was selected to be 380 nm, and the wavelength of emission light was selected to be 460 nm. Read once per 30 seconds, and continuously read 20 cycles. Linear regression analysis of signal value-time was performed during the linear reaction period, and the slope was the reaction rate, and the enzyme activity inhibition rate was calculated according to the following formula. The half inhibitory concentration IC50 values of the compound were fitted using GraphPad Prism 5 software, and results are shown in Table 1. Inhibition rate %=(V0−Vi)/(V0−Vblank)×100.
In the formula: V0 is the reaction rate of the control well (using the same volume of reaction buffer without adding test compound), Vi is the reaction rate of test compound, Vblank is a blank well (using the same volume of reaction buffer without adding either enzyme or test compound).

Structure (SMILES): CN1CCN(c2cccc3c2CCN(C(=O)/C=C/c2c(-n4cnnn4)ccc(Cl)c2F)[C@@H]3C(=O)Nc2ccc(C(=O)O)cc2)C(=O)C1 [BMS-962212, reference compound]
AUC(0-inf) [1]: 846 ± 80 ng·h/mL
AUC(0-t) [1]: 846 ± 80 ng·h/mL
Cmax [1]: 1480 ± 40 ng/mL
Vd [1]: 0.71 ± 0.04 L/kg
clearance [1]: 9.91 ± 0.94 mL/min/kg
half-life [1]: 49.8 ± 3 min
Repeated dose toxicity study in SD rats: females died (10th and 12th day of the administration) (SD rats [2]; daily): female animals. Two
Repeated dose toxicity study in SD rats: body weight finding (SD rats [2]; daily for 14 days, female animals): Significant weight loss
NOAEL at 14 days [3]: < 60 mg/kg
AUC(0-inf) [4]: 4090 ± 654 ng·h/mL
AUC(0-t) [4]: 4090 ± 654 ng·h/mL
Cmax [4]: 11100 ± 1850 ng/mL
clearance [4]: 20.7 ± 2.7 mL/min/kg
half-life [4]: 11.4 ± 1.8 min
Single dose toxicity study in SD rats: observation (SD rats [5]; 50 mg/kg): No abnormality was
Single dose toxicity study in SD rats: observation (SD rats [5]; 70 mg/kg): obviously hypoactive
Single dose toxicity study in SD rats: observation (SD rats [5]; 75 mg/kg): high mortality
Single dose toxicity study in SD rats: observation (SD rats [5]; 75 mg/kg, listed as Reference compound): Death of the animals
MTD at 7 days [6]: 70 mg/kg
AUC(0-inf) [7]: 484 ± 38 ng·h/mL
AUC(0-t) [7]: 476 ± 35 ng·h/mL
Cmax [7]: 1470 ± 145 ng/mL
Vd [7]: 1.28 ± 0.28 L/kg
clearance [7]: 34.6 ± 2.8 mL/min/kg
half-life [7]: 25.8 ± 6.6 min

IC50 [8]: 0.33 ± 0.06 nM
Structure (SMILES): CC(C)[C@H](N)C(=O)N1CC=C(c2cccc3c2CCN(C(=O)[C@H]2CC(c4cccc(Cl)c4F)=NO2)[C@@H]3C(=O)Nc2ccc(C(=O)O)cc2)CC1 [Example 1, 4-((S)-5-(1-((S)-2-amino-3-methylbutanoyl)-1,2,3,6-tetrahydropyridin-4-yl)-2-((R)-3-(3-chloro-2-fluorophenyl)-4,5-dihydroisoxazole-5-carbonyl)-1,2,3,4-tetrahydroisoquinoline-1-carboxamido)benzoic acid]

IC50 [8]: 0.21 ± 0.02 nM
Structure (SMILES): N[C@@H](CCC(=O)N1CC=C(c2cccc3c2CCN(C(=O)[C@H]2CC(c4cccc(Cl)c4F)=NO2)[C@@H]3C(=O)Nc2ccc(C(=O)O)cc2)CC1)C(=O)O [Example 2, 4-((S)-5-(1-((S)-4-amino-4-carboxybutanoyl)-1,2,3,6-tetrahydropyridin-4-yl)-2-((R)-3-(3-chloro-2-fluorophenyl)-4,5-dihydroisoxazole-5-carbonyl)-1,2,3,4-tetrahydroisoquinoline-1-carboxamido)benzoic acid]

IC50 [8]: 0.29 ± 0.04 nM
Structure (SMILES): N[C@@H](CCC(=O)O)C(=O)N1CC=C(c2cccc3c2CCN(C(=O)[C@H]2CC(c4cccc(Cl)c4F)=NO2)[C@@H]3C(=O)Nc2ccc(C(=O)O)cc2)CC1 [Example 3, 4-((S)-5-(1-((S)-2-amino-4-carboxybutanoyl)-1,2,3,6-tetrahydropyridin-4-yl)-2-((R)-3-(3-chloro-2-fluorophenyl)-4,5-dihydroisoxazole-5-carbonyl)-1,2,3,4-tetrahydroisoquinoline-1-carboxamido)benzoic acid]

Structure (SMILES): C[C@H](N)C(=O)N1CC=C(c2cccc3c2CCN(C(=O)[C@H]2CC(c4cccc(Cl)c4F)=NO2)[C@@H]3C(=O)Nc2ccc(C(=O)O)cc2)CC1 [Example 4, 4-((S)-5-(1-((S)-2-aminopropanoyl)-1,2,3,6-tetrahydropyridin-4-yl)-2-((R)-3-(3-chloro-2-fluorophenyl)-4,5-dihydroisoxazole-5-carbonyl)-1,2,3,4-tetrahydroisoquinoline-1-carboxamido)benzoic acid]
IC50 [8]: 0.85 ± 0.03 nM
